Laboratory results from PubChem BioAssay AID1117359 (Southern Research Institute, 2015).

system: THP-1 viability, CellTiter-Glo luminescence, 72 h; experiment: THP-1 cell cytotoxicity, dose response, cytotoxicity control for Vif-APOBEC3G degradation inhibitor project, THP-1 cells (AID 1117359)

`CCOc1cc(CNc2ccc(O)cc2)ccc1OCc1ccc(Cl)cc1Cl` and `Oc1ccc(N=Cc2ccc(O)c(O)c2)cc1` are within 1.5-fold of each other in CC50: 8.81 µM for the first, 13 µM for the second.

`CSc1nc(N(CCO)CCO)c2sc3nc(-c4ccco4)c4c(c3c2n1)CCC4` and `O=[N+]([O-])c1c(NCCO)cc(Sc2nc3ccccc3s2)c2nonc12` are within 1.5-fold of each other in CC50: 19.8 µM for the first, 17.9 µM for the second.

Going from `CCN=c1scc(C)n1/N=C/c1ccc(O)c(O)c1O` to `Oc1ccc(/C=N/NP(=S)(c2ccccc2)c2ccccc2)c(O)c1O`, the CC50 rises from 19.9 µM to 38.3 µM (1.9-fold).

Compared with `COC(C(=O)C(O)C(C)O)C1Cc2cc3cc(OC4CC(OC5CC(O)C(O)C(C)O5)C(O)C(C)O4)c(C)c(O)c3c(O)c2C(=O)C1OC1CC(OC2CC(OC3CC(O)C(OC)C(C)O3)C(O)C(C)O2)C(O)C(C)O1` (stereo not drawn), `CCOC(=O)C(C(=O)OCC)c1cc(Br)c2noc3c2c1C(=O)c1ccccc1-3` is higher in CC50: under 0.08 µM for the first, 9.78 µM for the second.
